# What was measured:
# [1] = tested on: metastasis of cancer; conditions: experiments using animals; cited from earlier work
# [2] = tested on: blood platelets; assay: Anticoagulating function for inhibiting coagulation of blood platelets (aggregometer, PRP, arachidonic acid); format: cell-based, rabbit (White Japanese native species); conditions: for Response (inhibition of coagulation of blood platelets): in vitro, arachidonic acid 50 mcg/ml, rabbit PRP, 37° C., 2 minutes
# Protocol: White Japanese native species male rabbits each having a body weight of from 2.5 to 4.0 kg were used. The state of health of the rabbits was checked by visual examination for such as diarrhea and scabies in the ears, and the number of blood platelets and the hematocrit value of the individual rabbits were determined using the blood taken from the auricular vein of the individual rabbits. Rabbits each having a number of blood platelets of from 30×10^4 to 50×10^4 […] and a hematocrit value of from 30 to 40% were selected and the thus selected rabbits were fed for a pre-breeding period of one week, and then the number of blood platelets and the hematocrit value of the thus bred rabbits were determined again.
# Using an injection tube treated with silicone, blood was taken from the auricular artery so that the ratio of blood to a 3.8% sodium citrate solution was 9 to 1 by volume, and the content of the tube was subjected to centrifugal separation at 100 to 140 g for 10 minutes. The supernatant was separated as platelet rich plasma (PRP), and the lower phase was further subjected to centrifugal separation at 450 g or 300 g for 10 minutes to obtain a platelet poor plasma (PPP). After subjecting the PRP to centrifugal separation at 800 g for 10 minutes, precipitated blood platelets were rinsed one time with a 5 m MEDTA deprived of Ca^2+ and MG^2+ and Hepes-Tyrode buffer (pH 7.4), and then suspended in Hepes-Tyrode buffer (pH 7.4) to obtain rinsed blood platelets. In the coagulation experiment, the number of blood platelets in PRP was directly counted by the Brecher-Cronkite method to control the same within the range of from 50×10^4 to 70×10^4 /mm^3.
# Using an aggregometer, PRP was added with each of specimen drugs, followed by incubation at 37° C. for a predetermined time period (2 minutes), and an aggregation provoker (arachidonic acid, 50 mcg/ml) was added and then subjected to measurement.
# The control drug used was Aspirin.
# [3] = tested on: lipoproteins precipitated by heparin (corresponding to the fractions of LDL and VLDL); assay: Effect against hyperlipidemia (Demonstration 2): lipoproteins precipitated by heparin (HPL, LDL and VLDL fractions) in blood serum; format: in vivo, mice; conditions: for Decrease of HPL / HPL/Cholesterol ratio: mice, oral; for HPL/Cholesterol ratio: criterion not more than 0.92
# Protocol: Six mice were bred with high cholesterol-cholic acid feeds for 7 days so as to induce hyperlipidemia; one half of the total dose of each compound (I) as set forth in Table 1 was orally administered at the sixth day and the other half was orally administered at the seventh day. After starving the mice for one night, the cholesterol content of the blood serum of the respective mice was determined. It was judged that the tested compound had the desired activity (of reducing fat content of blood) when the cholesterol content of the blood serum was decreased by 15% or more as compared to that of the mice of the control group. Similar experiments were conducted as in Example 2, and it was judged that the tested compound had the desired activity (of reducing fat content in blood) when the content of lipoproteins precipitated by heparin (corresponding to the fractions of LDL and VLDL) in the blood serum of the tested group was decreased by 20% or more as compared to that of the mice of control group. Decrease of atheromic β-LDL or increase of HDL could be estimated when the ratio of lipoproteins precipitated by heparin to cholesterol (HPL/cholesterol) was not more than 0.92.
# [4] = tested on: cholesterol content of the blood serum; assay: Effect against hyperlipidemia (Demonstration 1): cholesterol content of blood serum; format: in vivo, mice; conditions: for Reduction Rate of Cholesterol in Blood Serum: mice, oral
# Protocol: Six mice were bred with high cholesterol-cholic acid feeds for 7 days so as to induce hyperlipidemia; one half of the total dose of each compound (I) as set forth in Table 1 was orally administered at the sixth day and the other half was orally administered at the seventh day. After starving the mice for one night, the cholesterol content of the blood serum of the respective mice was determined. It was judged that the tested compound had the desired activity (of reducing fat content of blood) when the cholesterol content of the blood serum was decreased by 15% or more as compared to that of the mice of the control group.
# [5] = Test on acute toxicity; format: in vivo, mice; conditions: for acute toxicity, changes observed: mice
# Protocol: The compound (I) was administered to mice in an amount of 300 mg/kg orally or abdominally.
smiles,measurement,setting,value
Clc1ccccc1CN1CCc2sccc2C1 [ticlopidine],effect of inhibiting metastasis of cancer,[1],have the effect of inhibiting metastasis of cancer
"CC(=O)Oc1ccccc1C(=O)O [Aspirin, reference compound]",Response (inhibition of coagulation of blood platelets),[2]; 2.5 γ (μg/ml),100
same,effect of inhibiting metastasis of cancer,[1],have the effect of inhibiting metastasis of cancer
"N[C@H](Cc1cc(I)c(Oc2cc(I)c(O)c(I)c2)c(I)c1)C(=O)O [D-thyroxine, reference compound]",Decrease of HPL,[3]; 10 mg/kg,35%
same,HPL/Cholesterol ratio,[3]; 10 mg/kg,0.93
same,Reduction Rate of Cholesterol in Blood Serum,[4]; 10 mg/kg,30%
"COc1ccc(-c2nc3sc4ccccc4n3c(=O)c2-c2ccccc2)cc1 [Compound (I), 2-(p-methoxyphenyl)-3-phenylpyrimido[2,1-b]benzothiazole-4(4H)-one]","acute toxicity, changes observed","[5]; abdominal, 200 mg/kg",No changes were observed
same,"acute toxicity, changes observed","[5]; oral, 300 mg/kg",No changes were observed
same,"toxicity on successive administration, changes observed","[5]; mouse, in vivo, 100 mg/kg",no substantial change was observed
same,efficacy relative to control drug Aspirin,[2]; from Table 3,2.5 times
same,Response (inhibition of coagulation of blood platelets),[2]; 1 γ (μg/ml),100
same,pharmaceutical efficacy relative to control agent D-thiroxicine,"[3]; from Table 2, fraction of D-thiroxicine efficacy",about 2/5
same,Decrease of HPL,[3]; 10 mg/kg,17%
same,Decrease of HPL,[3]; 25 mg/kg,23%
same,HPL/Cholesterol ratio,[3]; 25 mg/kg,0.92
same,pharmaceutical efficacy relative to control agent D-thyroxine,"[4]; from Table 1, fraction of D-thyroxine efficacy",about 2/5
same,Reduction Rate of Cholesterol in Blood Serum,[4]; 10 mg/kg,11%
same,Reduction Rate of Cholesterol in Blood Serum,[4]; 25 mg/kg,16%
OCCN(CCO)c1nc(N2CCCCC2)c2nc(N(CCO)CCO)nc(N3CCCCC3)c2n1 [dipyridamol],effect of inhibiting metastasis of cancer,[1],have the effect of inhibiting metastasis of cancer

# Reference: patent US4788200A, “Method and composition for treating arteriosclerosis” (MECT Corporation, priority 1986, dated 1988)
